Test results published in publication PMC6013238, “Development of novel NEMO-binding domain mimetics for inhibiting IKK/NF-κB activation” (PLoS Biology, 2018).
Values joined by “and” are separate entries in the source; they are usually repeats but may differ in a detail not shown here. Equal entries are not always repeated.

Legend:
[1] = test system: NF-κB DNA binding activity; test: EMSA of NF-κB DNA binding activity in muscle of mdx mice after a single i.p. dose; assay type: in vivo, mouse; conditions: for NF-κB DNA binding activity in quadriceps (EMSA): mdx mice, single i.p. 10 mg/kg, 1 h and 2 h post injection
Procedure: To confirm that the NBD mimetics reduce IKK kinase activity, phosphorylation of IκBα by IKK in response to 10 ng/ml of TNF-α was measured by western blot at 0, 5, and 10 min after stimulation. […] To determine whether the mimetics also reduce NF-κB DNA binding activity, electrophoretic mobility shift assay (EMSA) was conducted both in vitro and in vivo. […] The addition of acetonitrile increased the stability of both ZINC compounds, especially ZINC 5 (Fig 3D).
Fig 3 Two identified small molecules reduce NF-κB DNA binding activity in vivo and in vitro. (A) Levels of p-IκBα with or without treatment in response to TNF-α were determined by western blot analysis. HEK293 cells were pretreated with DMSO, ZINC12909780 (100 μM), and ZINC5 (100 μM) for 30 min followed by the stimulation of 10 ng/ml of TNF-α for 0, 5, and 10 min. Cell lysates were prepared for immunoblot against p-IκBα. GAPDH was used as a loading control. (B) EMSA analysis detecting NF-κB DNA binding activity was performed in C2C12 myoblasts. Cells were pretreated with 200 μM of DMSO, ZINC12909780, and ZINC5 in serum-free media for 1 h. TNF-α was then added to a final concentration of 10 ng/ml and incubated for 15 min. Nuclear extract was obtained for EMSA analysis. (C) EMSA analysis assessing NF-κB DNA binding activity in vivo was performed with quadriceps from mdx mice. […] Quadriceps was harvested at 1 h and 2 h post injection for EMSA analysis. (D) The time-course pharmacokinetics of ZINC5 and ZINC12909780 in FBS media or FBS media containing acetonitrile. Underlying data can be found in S1 Data. EMSA, electrophoretic mobility shift assay; HEK293, human embryonic kidney 293 cells; i.p., intraperitoneal; NF-κB, nuclear factor κB; t1/2, half-life; TNF-α; tumor necrosis factor α. […]
Supplementary file pbio.2004663.s005.tif: S4 Fig Chronic treatment with NBD mimetics improves muscle pathology by inhibiting NF-κB DNA binding activity in mdx mice. (A) Quantification of percentage of centralized myonuclei. […]

[2] = Body weight of chronically treated mdx mice; conditions: in g (unit assumed); for Body weight AVG: group average (FigS3A); for Body weight: individual mouse (FigS3A)
NF-κB activation = test: Dual-luciferase (NF-κB firefly/SV40-Renilla) reporter assay, TNF-α-stimulated HEK293 cells; assay type: cell-based, human; conditions: for Relative luciferase activity (NF-κB/Renilla): Fig 4B, CTRL about 1; for NF-κB luciferase activity, dose-dependent curve: Fig S1A, CTRL about 100; for IC50: Homo sapiens, HEK293, luciferase assays at 0, 25, 50, 100, 150 μM, GraphPad, read-out: IC50 of inhibition of TNF-α-mediated NF-κB activation
mdx mice = test: Chronic treatment of mdx mice, forelimb grip strength test; assay type: in vivo, mouse; conditions: Fig 7G, single mice
Excerpt: Fig 7 NBD mimetics improve muscular pathology and grip strength in mdx mice. (A) Shown is the treatment regimen with NBD mimetics in mdx mice. (B) Hematoxylin–eosin staining of TA muscle from 7-wk-old, treated or untreated mdx mice. Images were taken at magnification of 20×. Representative images were shown for each treatment group. […] (E) TA muscle from 7-wk-old, treated or untreated mdx mice was stained with laminin by IHC to outline myofibers. Overall images of TA muscle were shown on the left side, and the inset panel images were shown on the right side. (F) Quantitation of minimum Feret diameter in centrally and noncentrally nucleated myofibers. (G) Forelimb force determined by grip strength test. Five-wk-old (2 wk post treatment) and 7-wk-old (4 wk post treatment) mdx mice, treated or untreated, were tested for forelimb grip strength. Five sequential tests were performed, and the force was normalized to body weight. Data were shown as mean +/− SEM. Dosages used are as follows: SR12343 (30 mg/kg), SR12460 (30 mg/kg), and 8K-NBD peptide (10 mg/kg). n = 6–7 each group. *P < 0.05, **P < 0.01. Underlying data can be found in S1 Data. eMyHC, embryonic myosin heavy chain; IHC, immunohistochemistry; NBD, NEMO-binding domain; NEMO, NF-κB essential modulator; Pax7, paired box protein 7; qRT-PCR, quantitative real-time polymerase chain reaction; TA, tibialis anterior. To determine whether the NBD mimetics improved muscle strength, grip strength was measured 2 wk and 4 wk post treatment to assess forelimb strength (Fig 7G). […] Seven-wk-old treated or untreated mdx mice were measured for forelimb grip strength by using a digital grip strength meter paired with a metal grid (Bioseb, Vitrolles, France). Mice were allowed to grip the metal grid tightly, and readings were obtained by gently pulling the tail backward until release. Five sequential measurements were performed, and the average force was calculated.

Compound | NF-κB DNA binding activity in quadriceps (EMSA) [1] | Body weight AVG ([2]; Day 21) | Body weight ([2]; Day 21) | Body weight AVG ([2]; Day 23) | Body weight ([2]; Day 23) | Body weight AVG ([2]; Day 26) | Body weight ([2]; Day 26) | Body weight AVG ([2]; Day 28) | Body weight ([2]; Day 28) | Body weight AVG ([2]; Day 30) | Body weight ([2]; Day 30) | Body weight AVG ([2]; Day 32) | Body weight ([2]; Day 32) | Body weight AVG ([2]; Day 34) | Body weight ([2]; Day 34) | Body weight AVG ([2]; Day 37) | Body weight ([2]; Day 37) | Body weight AVG ([2]; Day 39) | Body weight ([2]; Day 39) | Body weight AVG ([2]; Day 41) | other results
Nc1ncccc1C(=O)OCC(=O)Nc1ccc(Cl)cc1F [ZINC12909780] | inhibited NF-κB DNA binding activity |  |  |  |  |  |  |  |  |  |  |  |  |  |  |  |  |  |  |  | 
O=C(CNc1ccc(Cl)cn1)NCCc1cccc(Br)c1 [SR12343] |  | 8.8 | 8.1 and 9 and 8.6 and 10 and 8.3 | 10.48 | 9.5 and 11.4 and 9.8 and 10.7 and 11 | 12.2 | 10.8 and 13.9 and 12.3 and 11.7 | 13.48 | 12.7 and 14.8 and 12.2 and 13.2 and 14.5 | 15.66 | 12.5 and 17.3 and 16.6 and 15.5 and 16.4 | 18.96 | 16.4 and 21.5 and 20 and 18 and 18.9 | 19.78 | 16.9 and 22.5 and 20.5 and 19.4 and 19.6 | 20.46 | 18.3 and 23 and 21.4 and 19.4 and 20.2 | 21.7333 | 18.2 and 24.1 and 22.9 | 22.4 | NF-κB DNA binding in TA muscle (EMSA) ([1]; 9-wk-old mdx mice, single injection 30 mg/kg i.p., 2 h post injection): reduction in NF-κB DNA binding; Body weight ([2]; Day 41): 19.6 and 25 and 22.6; Body weight AVG ([2]; Day 44): 22.9667; Body weight ([2]; Day 44): 20 and 24.7 and 24.2; Body weight AVG ([2]; Day 46): 22.8667; Body weight ([2]; Day 46): 21 and 24 and 23.6; Relative luciferase activity (NF-κB/Renilla) (NF-κB activation; 25 μM): 0.621 and 0.6268 and 0.6057; Relative luciferase activity (NF-κB/Renilla) (NF-κB activation; 50 μM): 0.3824 and 0.4086 and 0.3925; Relative luciferase activity (NF-κB/Renilla) (NF-κB activation; 100 μM): 0.327 and 0.2292 and 0.2181; NF-κB luciferase activity, dose-dependent curve (NF-κB activation; 25 μM): 62 and 63 and 60; NF-κB luciferase activity, dose-dependent curve (NF-κB activation; 50 μM): 38 and 41 and 39; NF-κB luciferase activity, dose-dependent curve (NF-κB activation; 100 μM): 33 and 23 and 22; IC50 (NF-κB activation): 37 µM; Forelimb grip strength, force normalized to body weight (mdx mice; 2 week post treatment): significantly improved forelimb strength; Forelimb grip strength, force normalized to body weight (mdx mice; 2 week post treatment, listed as SR 12343): 3.61 and 3.7248 and 3.659 and 4.054; Forelimb grip strength, force normalized to body weight (mdx mice; 4 week post treatment): 4.866 and 4.5019 and 4.825 and 4.175 and 4.644 and 3.675 and 4.427
O=C(COC(=O)Cc1ccccc1F)Nc1ccc(Cl)cn1 [ZINC5] | inhibited NF-κB DNA binding activity |  |  |  |  |  |  |  |  |  |  |  |  |  |  |  |  |  |  |  | 
O=C(CNCCc1cc(F)cc(F)c1)Nc1ccc(Cl)cn1 [SR12460] |  | 8.34 | 8.5 and 8.8 and 6.9 and 9 | 9.96 | 10.5 and 9.7 and 8.5 and 10.3 and 10.8 | 11.42 | 12.6 and 10.7 and 10.9 and 11.3 and 11.6 | 13.58 | 14.1 and 14.6 and 13.2 and 12.6 and 13.4 | 14.92 | 16.1 and 13.5 and 14.9 and 14.4 and 15.7 | 18.56 | 20.3 and 16.4 and 20.2 and 18.3 and 17.6 | 19.58 | 21 and 17.1 and 21.1 and 18.8 and 19.9 | 20.22 | 22.2 and 18.3 and 19.3 and 19.1 | 21.5333 | 22.3 and 18.8 and 23.5 | 22.4 | Body weight ([2]; Day 41): 23.1 and 19.5 and 24.6; Body weight AVG ([2]; Day 44): 22.7333; Body weight ([2]; Day 44): 23.7 and 19.3 and 25.2; Body weight AVG ([2]; Day 46): 23.7; Body weight ([2]; Day 46): 25 and 20.1 and 26; Relative luciferase activity (NF-κB/Renilla) (NF-κB activation; 25 μM): 0.1864 and 0.2241 and 0.2663; Relative luciferase activity (NF-κB/Renilla) (NF-κB activation; 50 μM): 0.09822 and 0.1016 and 0.1003; Relative luciferase activity (NF-κB/Renilla) (NF-κB activation; 100 μM): 0.1076 and 0.0851 and 0.1209; Relative luciferase activity (NF-κB/Renilla) (NF-κB activation; 150 μM): 0.09311 and 0.129 and 0.1129; NF-κB luciferase activity, dose-dependent curve (NF-κB activation; 25 μM): 18.6398 and 22.411 and 26.6317; NF-κB luciferase activity, dose-dependent curve (NF-κB activation; 50 μM): 9.822 and 10.1552 and 10.0281; NF-κB luciferase activity, dose-dependent curve (NF-κB activation; 100 μM): 10.7557 and 8.5097 and 12.0922; NF-κB luciferase activity, dose-dependent curve (NF-κB activation; 150 μM): 9.311 and 12.8976 and 11.2908; IC50 (NF-κB activation): 11.3 µM; Forelimb grip strength, force normalized to body weight (mdx mice; 2 week post treatment): 5.738 and 3.226 and 3.35; Forelimb grip strength, force normalized to body weight (mdx mice; 4 week post treatment): 5.455 and 4.515 and 5.487 and 3.928 and 4.07 and 4.448
